Laboratory results: patent publication US20220024945A1, “THERAPEUTIC COMPOUNDS AND COMPOSITIONS, AND METHODS OF USE THEREOF” (Genentech, Inc., priority 2017, published 2022)

Columns and labels:
[1] = biological target: isolated recombinant JAK1 kinase domain (Homo sapiens, UniProt P23458); assay: JAK enzyme assay (Caliper LabChip), JAK1 kinase domain; type: biochemical; conditions: ATP 25 μM; 1.5 nM JAK1; Morrison tight binding model
[2] = biological target: isolated recombinant JAK2 kinase domain (Homo sapiens, UniProt O60674); assay: JAK enzyme assay (Caliper LabChip), JAK2 kinase domain; conditions: ATP 25 μM, 0.2 nM JAK2, Morrison tight binding model
Experimental: JAK Enzyme Assays were Carried Out as Follows:
The activity of the isolated recombinant JAK1 and JAK2 kinase domain was measured by monitoring phosphorylation of a peptide derived from JAK3 ([sequence] fluorescently labeled on the N-terminus with 5-carboxyfluorescein) using the Caliper LabChip® technology (Caliper Life Sciences, Hopkinton, Mass.). […] Reactions were incubated at 22° C. in 384-well polypropylene microtiter plates for 30 minutes and then stopped by addition of 25 μL of an EDTA containing solution (100 mM HEPES buffer (pH 7.2), 0.015% Brij-35, 150 mM EDTA), resulting in a final EDTA concentration of 50 mM. After termination of the kinase reaction, the proportion of phosphorylated product was determined as a fraction of total peptide substrate using the Caliper LabChip® 3000 according to the manufacturer's specifications.

[3] = tested on: JAK1-dependent STAT6 phosphorylation downstream of IL-13 stimulation, BEAS-2B cells; assay: JAK1 pathway assay in cell lines: P-STAT6 in BEAS-2B cells + IL13; type: cell-based; conditions: Homo sapiens, BEAS-2B, 1 h, BEAS-2B human bronchial epithelial cells, 1 hr compound preincubation, read-out: P-STAT6 BEAS2B + IL13 IC50
Experimental: JAK1 Pathway Assay in Cell Lines was Carried Out as Follows:
Inhibitor potency (EC50) was determined in cell-based assays designed to measure JAK1 dependent STAT phosphorylation. As noted above, inhibition of IL-4, IL-13, and IL-9 signaling by blocking the Jak/Stat signaling pathway can alleviate asthmatic symptoms in pre-clinical lung inflammation models (Mathew et al., 2001, J Exp Med 193(9): 1087-1096; Kudlacz et. al., 2008, Eur J. Pharmacol 582(1-3): 154-161).
In one assay approach, TF-1 human erythroleukemia cells obtained from the American Type Culture Collection (ATCC; Manassas, Va.) were used to measure JAK1-dependent STAT6 phosphorylation downstream of IL-13 stimulation. Prior to use in the assays, TF-1 cells were starved of GM-CSF overnight in OptiMEM medium (Life Technologies, Grand Island, N.Y.) supplemented with 0.5% charcoal/dextran stripped fetal bovine serum (FBS), 0.1 mM non-essential amino acids (NEAA), and 1 mM sodium pyruvate. The assays were run in 384-well plates in serum-free OptiMEM medium using 300,000 cells per well. In a second assay approach, BEAS-2B human bronchial epithelial cells obtained from ATCC were plated at 100,000 cells per well of a 96-well plate one day prior to the experiment. The BEAS-2B assay was run in complete growth medium (bronchial epithelial basal medium plus bulletkit; Lonza; Basel, Switzerland).
Test compounds were serially diluted 1:2 in DMSO and then diluted 1:50 in medium just before use. Diluted compounds were added to the cells, for a final DMSO concentration of 0.2%, and incubated for 30 m (for the TF-1 assay) or 1 hr (for the BEAS-2B assay) at 37° C. Then, cells were stimulated with human recombinant cytokine at their respective EC90 concentrations, as previously determined for each individual lot. Cells were stimulated with […] (R&D Systems, Minneapolis, Minn.) for 15 m/at 37° C. The TF-1 cell reactions were stopped by the direct addition of 10× lysis buffer (Cell Signaling Technologies, Danvers, Mass.), whereas the BEAS-2B cell incubations were halted by the removal of medium and addition of 1× lysis buffer. The resultant samples were frozen in the plates at −80° C. Compound mediated inhibition of STAT6 phosphorylation was measured in the cell lysates using MesoScale Discovery (MSD) technology (Gaithersburg, Md.). EC50 values were determined as the concentration of compound required for 50% inhibition of STAT phosphorylation relative to that measured for the DMSO control.

isolated recombinant JAK2 kinase domain, sequence (O60674 849-1124 limits assumed): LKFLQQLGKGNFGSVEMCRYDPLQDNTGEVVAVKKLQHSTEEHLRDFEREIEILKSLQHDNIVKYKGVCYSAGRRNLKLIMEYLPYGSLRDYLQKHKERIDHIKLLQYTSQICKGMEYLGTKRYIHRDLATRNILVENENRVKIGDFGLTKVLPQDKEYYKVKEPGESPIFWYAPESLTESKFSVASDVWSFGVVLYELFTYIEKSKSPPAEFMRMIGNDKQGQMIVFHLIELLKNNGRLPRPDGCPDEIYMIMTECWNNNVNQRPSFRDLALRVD
isolated recombinant JAK1 kinase domain, sequence (P23458 875-1153 limits assumed): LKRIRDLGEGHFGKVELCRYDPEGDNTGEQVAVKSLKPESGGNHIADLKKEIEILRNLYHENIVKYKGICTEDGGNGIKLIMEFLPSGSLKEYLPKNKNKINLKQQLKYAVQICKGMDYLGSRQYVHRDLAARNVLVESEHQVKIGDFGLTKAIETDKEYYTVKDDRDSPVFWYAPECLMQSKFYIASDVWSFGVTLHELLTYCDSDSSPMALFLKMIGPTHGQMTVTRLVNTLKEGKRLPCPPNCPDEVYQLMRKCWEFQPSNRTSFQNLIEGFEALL

SMILES	Ki [1] [pM]	Ki [2] [pM]	IC50 [3] [pM]
CN(C)C(=O)Cn1cc(NC(=O)c2cnn3cccnc23)c(-c2cc(SC(F)F)ccc2OC(F)F)n1 [Example 33, N-[3-[2-(difluoromethoxy)-5-(difluoromethylsulfanyl)phenyl]-1-[2-(dimethylamino)-2-oxo-ethyl]pyrazol-4-yl]pyrazolo[1,5-a]pyrimidine-3-carboxamide]	210	520	10000
O=C(Nc1cn(C2CN(C3COC3)C2)nc1-c1cc(SC2COC2)ccc1OC(F)F)c1cnn2cccnc12 [Example 35, N-[3-[2-(difluoromethoxy)-5-(oxetan-3-ylsulfanyl)phenyl]-1-[1-(oxetan-3-yl)azetidin-3-yl]pyrazol-4-yl]pyrazolo[1,5-a]pyrimidine-3-carboxamide]	1140	900	42000
O=C(Nc1cn(CC(=O)N2CCC(N3CCOCC3)CC2)nc1-c1cc(SC(F)F)ccc1OC(F)F)c1cnn2cccnc12 [Example 42, N-[3-[2-(difluoromethoxy)-5-(difluoromethylsulfanyl)phenyl]-1-[2-(4-morpholino-1-piperidyl)-2-oxo-ethyl]pyrazol-4-yl]pyrazolo[1,5-a]pyrimidine-3-carboxamide]	340	720	23000
COC(=O)CSc1ccc(OC(F)F)c(-c2n[nH]cc2NC(=O)c2cnn3cccnc23)c1 [Example 43, methyl 2-[4-(difluoromethoxy)-3-[4-(pyrazolo[1,5-a]pyrimidine-3-carbonylamino)-1H-pyrazol-3-yl]phenyl]sulfanylacetate]	320	150	37000
CSc1ccc(OC(F)F)c(-c2nn(CC(=O)N(C)C)cc2NC(=O)c2cnn3cccnc23)c1 [Example 44]	170	240	10000

The next lines start with results.

Ki [1] [pM]	Ki [2] [pM]	SMILES	IC50 [3] [pM]
1020	390	CC(=O)N1CCC(Sc2ccc(OC(F)F)c(-c3n[nH]cc3NC(=O)c3cnn4cccnc34)c2)CC1 [Example 34, N-[3-[5-[(1-acetyl-4-piperidyl)sulfanyl]-2-(difluoromethoxy)phenyl]-1H-pyrazol-4-yl]pyrazolo[1,5-a]pyrimidine-3-carboxamide]	251000
210	210	CNC(=O)Cn1cc(NC(=O)c2cnn3cccnc23)c(-c2cc(SC)ccc2OC(F)F)n1 [Example 45, N-[3-[2-(difluoromethoxy)-5-methylsulfanyl-phenyl]-1-[2-(methylamino)-2-oxo-ethyl]pyrazol-4-yl]pyrazolo[1,5-a]pyrimidine-3-carboxamide]	8000
1240	1280	C[C@H](O)Cn1cc(Sc2ccc(OC(F)F)c(-c3nn(CC(=O)N(C)C)cc3NC(=O)c3cnn4cccnc34)c2)cn1 [Example 46, (S)-N-(3-(2-(difluoromethoxy)-5-((1-(2-hydroxypropyl)-1H-pyrazol-4-yl)thio)phenyl)-1-(2-(dimethylamino)-2-oxoethyl)-1H-pyrazol-4-yl)pyrazolo[1,5-a]pyrimidine-3-carboxamide]	223000
180	780	CN(C)C(=O)Cn1cc(NC(=O)c2cnn3cccnc23)c(-c2cc(SCC(F)(F)F)ccc2OC(F)F)n1 [Example 47, N-(3-(2-(difluoromethoxy)-5-((2,2,2-trifluoroethyl)thio)phenyl)-1-(2-(dimethylamino)-2-oxoethyl)-1H-pyrazol-4-yl)pyrazolo[1,5-a]pyrimidine-3-carboxamide]	15000
1350	4440	CN(C)C(=O)Cn1cc(NC(=O)c2cnn3cccnc23)c(-c2cc([S+](C)[O-])ccc2OC(F)F)n1 (stereo not drawn) [Example 48, N-(3-(2-(difluoromethoxy)-5-(methylsulfinyl)phenyl)-1-(2-(dimethylamino)-2-oxoethyl)-1H-pyrazol-4-yl)pyrazolo[1,5-a]pyrimidine-3-carboxamide]	518000
450	790	CN(C)C(=O)Cn1cc(NC(=O)c2cnn3cccnc23)c(-c2cc(S(C)(=O)=O)ccc2OC(F)F)n1 [Example 49, N-(3-(2-(difluoromethoxy)-5-(methylsulfonyl)phenyl)-1-(2-(dimethylamino)-2-oxoethyl)-1H-pyrazol-4-yl)pyrazolo[1,5-a]pyrimidine-3-carboxamide]	214000
300	560	CN(C)C(=O)Cn1cc(NC(=O)c2cnn3cccnc23)c(-c2cc(S(=O)(=O)C(F)F)ccc2OC(F)F)n1 [Example 50, N-(3-(2-(difluoromethoxy)-5-((difluoromethyl)sulfonyl)phenyl)-1-(2-(dimethylamino)-2-oxoethyl)-1H-pyrazol-4-yl)pyrazolo[1,5-a]pyrimidine-3-carboxamide]	38000
